Laboratory results as given in ChEMBL document CHEMBL3400055, “(+)- and (-)-liriodenol, a pair of novel enantiomeric lignans from Liriodendron hybrid” (Bioorg Med Chem Lett, 2015).
Values after ≈ are worked out from the molar mass of the structure shown.

Columns and labels:
Assay type in all cases: functional, cell-based
[1] = Cytotoxic activity against human BGC823 cells after 48 hrs by MTT assay; conditions: BGC-823, 48 h
[2] = Cytotoxic activity against human SGC7901 cells after 48 hrs by MTT assay; conditions: SGC-7901, 48 h
MDA-MB-231 = test: Cytotoxic activity against human MDA-MB-231 cells after 48 hrs by MTT assay; conditions: MDA-MB-231, 48 h
NCI-H460 = test: Cytotoxic activity against human NCI-H460 cells after 48 hrs by MTT assay; conditions: NCI-H460, 48 h

SMILES	IC50 [1]	IC50 [2]	IC50 (MDA-MB-231)	IC50 (NCI-H460)
C=C(C(=O)c1cc(OC)c(O)c(OC)c1)C(CO)C(=O)c1cc(OC)c(O)c(OC)c1 (racemic)	58.9 µg/mL (≈ 136 µM)	67.5 µg/mL (≈ 156 µM)	51.4 µg/mL (≈ 119 µM)	58.1 µg/mL (≈ 134 µM)
C=C(C(=O)c1cc(OC)c(O)c(OC)c1)[C@@H](CO)C(=O)c1cc(OC)c(O)c(OC)c1	45.5 µg/mL (≈ 105 µM)	34.5 µg/mL (≈ 79.7 µM)	28.7 µg/mL (≈ 66.3 µM)	31.4 µg/mL (≈ 72.7 µM)
C=C(C(=O)c1cc(OC)c(O)c(OC)c1)[C@H](CO)C(=O)c1cc(OC)c(O)c(OC)c1	> 100 µg/mL	> 100 µg/mL	53.3 µg/mL (≈ 123 µM)	63.4 µg/mL (≈ 147 µM)
